Key:
P-glycoprotein [1] = molecular target: T1, P-glycoprotein (Cricetulus griseus, UniProt P21448); experiment: displacement of [3H]vinblastine equilibrium binding, rapid filtration; settings: read-out: EC50 (the source's name)
T1 construct: gene ABCB1; CHrB30 plasma membranes

P-glycoprotein [2] = molecular target: T1, P-glycoprotein; experiment: radioligand filtration binding; no specific binding in parental AuxB1 membranes (Kd […] is quoted from earlier work)

T1 sequence (P21448 whole entry): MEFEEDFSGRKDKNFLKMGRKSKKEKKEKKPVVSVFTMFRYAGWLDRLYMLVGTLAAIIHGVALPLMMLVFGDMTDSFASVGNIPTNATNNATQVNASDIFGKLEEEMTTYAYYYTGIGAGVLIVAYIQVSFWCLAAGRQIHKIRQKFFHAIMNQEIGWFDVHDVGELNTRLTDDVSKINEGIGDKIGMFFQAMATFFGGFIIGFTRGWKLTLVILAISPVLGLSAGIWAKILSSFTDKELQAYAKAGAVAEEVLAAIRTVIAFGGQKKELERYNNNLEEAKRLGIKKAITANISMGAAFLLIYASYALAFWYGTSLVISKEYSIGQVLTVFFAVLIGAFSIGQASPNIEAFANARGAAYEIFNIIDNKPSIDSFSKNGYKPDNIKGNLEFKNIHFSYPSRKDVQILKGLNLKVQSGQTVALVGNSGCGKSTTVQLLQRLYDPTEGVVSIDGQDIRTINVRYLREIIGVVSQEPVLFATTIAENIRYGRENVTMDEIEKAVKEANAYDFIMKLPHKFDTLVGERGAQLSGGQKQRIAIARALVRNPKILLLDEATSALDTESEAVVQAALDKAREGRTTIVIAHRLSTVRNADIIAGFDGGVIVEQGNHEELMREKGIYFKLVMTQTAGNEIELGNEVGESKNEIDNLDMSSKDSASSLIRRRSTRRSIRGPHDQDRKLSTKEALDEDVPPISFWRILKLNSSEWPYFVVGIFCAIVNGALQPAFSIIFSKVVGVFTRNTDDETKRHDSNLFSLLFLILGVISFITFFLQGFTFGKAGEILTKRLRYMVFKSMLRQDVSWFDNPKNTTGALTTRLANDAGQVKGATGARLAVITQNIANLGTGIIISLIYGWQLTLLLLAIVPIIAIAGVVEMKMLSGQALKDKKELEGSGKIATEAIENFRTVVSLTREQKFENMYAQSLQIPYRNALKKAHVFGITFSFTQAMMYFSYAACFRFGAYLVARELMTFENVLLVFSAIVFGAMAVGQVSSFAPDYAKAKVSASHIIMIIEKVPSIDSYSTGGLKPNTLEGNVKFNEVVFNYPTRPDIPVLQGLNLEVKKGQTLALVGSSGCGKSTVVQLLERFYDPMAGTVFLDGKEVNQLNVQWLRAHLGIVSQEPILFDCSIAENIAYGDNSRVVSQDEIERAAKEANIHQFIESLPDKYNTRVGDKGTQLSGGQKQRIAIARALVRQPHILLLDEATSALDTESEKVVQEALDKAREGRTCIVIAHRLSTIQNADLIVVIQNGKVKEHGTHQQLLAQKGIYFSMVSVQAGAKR

SMILES	IC50 (P-glycoprotein [1]) [nM]	radioligand filtration binding; no specific binding in parental AuxB1 membranes (P-glycoprotein [2])
COc1cc2c(cc1OC)CN(CCc1ccc(NC(=O)c3cccc(/C=c4\[nH]c(=O)/c(=C/c5ccccc5)n(C)c4=O)c3)cc1)CC2 [XR9051, N-(4-(2-(6,7-Dimethoxy-1,2,3,4-tetrahydro-2-isoquinolyl)ethyl)phenyl)-3-((3Z,6Z)-6-benzylidene-1-methyl-2,5-dioxo-3-piperazinylidene) methylbenzamide]	1.4	
CC[C@]1(O)C[C@@H]2CN(CCc3c([nH]c4ccccc34)[C@@](C(=O)OC)(c3cc4c(cc3OC)N(C)[C@H]3[C@@](O)(C(=O)OC)[C@H](OC(C)=O)[C@]5(CC)C=CCN6CC[C@]43[C@@H]65)C2)C1 [vinblastine]		A rapid filtration assay was used to determine the equilibrium

Source: article PMC2063130, “Reversal of P-glycoprotein-mediated multidrug resistance by XR9051, a novel diketopiperazine derivative” (British Journal of Cancer, 1998)
